Measurements from patent publication US9802944B2, “Bicyclic compounds as autotaxin (ATX) and lysophosphatidic acid (LPA) production inhibitors” (Hoffmann-La Roche Inc., priority 2014, dated 2017).

Target: ATX (human His-tagged) (Homo sapiens (Human), UniProt Q13822)
Assay: Human ATX enzyme inhibition assay (fluorescence quenching, MR121 substrate)
Assay type: biochemical
Conditions: 30 nM ATX, 1 μM MR121 substrate, 30° C., pH 8.0
Method: Production of Human Full Length ATX, with and without his Tag
Autotaxin (ATX-ENPP2) Cloning:
cDNA was prepared from commercial human hematopoietic cells total RNA and used as template in overlapping PCR to generate a full length human ENPP2 ORF with or without a 3′-6×His tag. These full length inserts were cloned into the pcDNA3.1V5-His TOPO (Invitrogen) vector. The DNA sequences of several single clones were verified. The DNA from a correct full length clone was used to transfect Hek293 cells for verification of protein expression. […] ATX Fermentation: Recombinant protein was produced by large-scale transient transfection in 20 L controlled stirred tank bioreactors (Sartorius). During cell growth and transfection, temperature, stirrer speed, pH and dissolved oxygen concentration were maintained at 37° C., 120 rpm, 7.1 and 30% DO, respectively. […] Expression was analyzed by Western Blot, enzymatic assay and/or analytical IMAC chromatography. After cooling the cell suspension to 4° C. in a flow-through heat exchanger, cell separation and sterile filtration of supernatant was performed by filtration through Zeta Plus 60M02 E16 (Cuno) and Sartopore 2 XLG (Sartorius) filter units. The supernatant was stored at 4° C. prior to purification. ATX Purification: 20 liter of culture supernatant were conditioned for ultrafiltration by adding Brij 35 to a final concentration of 0.02% and by adjusting the pH to 7.0 using 1 M HCl. Then the supernatant was first microfiltered through a 0.2 μm Ultran-Pilot Open Channel PES filter (Whatman) and afterwards concentrated to 1 liter through an Ultran-Pilot Screen Channel PES filter with 30 kDa MWCO (Whatman). Prior to IMAC chromatography, NiSO4 was added to a final concentration of 1 mM. The cleared supernatant was then applied to a HisTrap column (GE Healthcare) previously equilibrated in 50 mM Na2HPO4 pH 7.0, 0.5 M NaCl, 10% glycerol, 0.3% CHAPS, 0.02% NaN3. The column was washed stepwise with the same buffer containing 20 mM, 40 mM and 50 mM imidazole, respectively. The protein was subsequently eluted using a linear gradient to 0.5 M imidazole in 15 column volumes. ATX containing fractions were pooled and concentrated using an Amicon cell equipped with a 30 kDa PES filter membrane. The protein was further purified by size exclusion chromatography on Superdex S-200 prep grade (XK 26/100) (GE Healthcare) in 20 mM BICINE pH 8.5, 0.15 M NaCl, 10% glycerol, 0.3% CHAPS, 0.02% NaN3. […] The protein was stored at −80° C. […] 10 μL of MR121 substrate solution was added (1 μM final concentration), mixed 30 times and then incubated for 15 minutes at 30° C.

Row | SMILES | IC50 [nM]
1 | NS(=O)(=O)c1ccc(C(=O)N2C[C@H]3CN(C(=O)c4cnc(OC5CCOCC5)c(C5CC5)c4)C[C@@H]3C2)cc1 [Example 1.02, 4-((3aS,6aS)-5-(5-cyclopropyl-6-(tetrahydro-2H-pyran-4-yloxy)nicotinoyl)octahydropyrrolo[3,4-c]pyrrole-2-carbonyl)benzenesulfonamide] | 22
2 | O=C(c1cnc(OC2CCOCC2)c(C2CC2)c1)N1C[C@@H]2CN(C(=O)c3ccc4[nH]nnc4c3)C[C@H]2C1 [Example 2.07, ((3aS,6aS)-5-(1H-benzo[d][1,2,3]triazole-5-carbonyl)hexahydropyrrolo[3,4-c]pyrrol-2(1H)-yl)(5-cyclopropyl-6-(tetrahydro-2H-pyran-4-yloxy)pyridin-3-yl)methanone] | 10
3 | O=C(c1cc(OCC2CCCOC2)nc(C2CC2)c1)N1C[C@@H]2CN(Cc3ccc4[nH]nnc4c3)C[C@H]2C1 (stereo partly drawn) [Example 2.19, ((3aS,6aS)-5-((1H-benzo[d][1,2,3]triazol-5-yl)methyl)hexahydropyrrolo[3,4-c]pyrrol-2(1H)-yl)(2-cyclopropyl-6-((tetrahydro-2H-pyran-3-yl)methoxy)pyridin-4-yl)methanone] | 10
4 | NS(=O)(=O)c1ccc(C(=O)N2C[C@H]3CN(C(=O)c4cc(OCC5CCOCC5)nc(C5CC5)c4)C[C@@H]3C2)cc1Cl [Example 1.05, 2-chloro-4-((3aR,6aR)-5-(2-cyclopropyl-6-((tetrahydro-2H-pyran-4-yl)methoxy)isonicotinoyl)octahydropyrrolo[3,4-c]pyrrole-2-carbonyl)benzenesulfonamide] | 6
5 | NS(=O)(=O)c1ccc(C(=O)N2C[C@H]3CN(C(=O)c4cnc(OC5CCCOC5)c(C5CC5)c4)C[C@@H]3C2)nc1 (stereo partly drawn) [Example 2.13, 6-((3aR,6aR)-5-(5-cyclopropyl-6-(tetrahydro-2H-pyran-3-yloxy)nicotinoyl)octahydropyrrolo[3,4-c]pyrrole-2-carbonyl)pyridine-3-sulfonamide] | 10
6 | O=C(c1cnc(NC2CCOCC2)c(C2CC2)c1)N1C[C@@H]2CN(C(=O)c3ccc4[nH]nnc4c3)C[C@H]2C1 [Example 2.04, ((3aS,6aS)-5-(1H-benzo[d][1,2,3]triazole-5-carbonyl)hexahydropyrrolo[3,4-c]pyrrol-2(1H)-yl)(5-cyclopropyl-6-(tetrahydro-2H-pyran-4-ylamino)pyridin-3-yl)methanone] | 40
7 | O=C(c1cc(OCC2CCCOC2)nc(C2CC2)c1)N1C[C@@H]2CN(C(=O)c3ccc4[nH]nnc4c3)C[C@H]2C1 (stereo partly drawn) [Example 2.15, ((3aS,6aS)-5-(1H-benzo[d][1,2,3]triazole-5-carbonyl)hexahydropyrrolo[3,4-c]pyrrol-2(1H)-yl)(2-cyclopropyl-6-((tetrahydro-2H-pyran-3-yl)methoxy)pyridin-4-yl)methanone] | 12
8 | O=C(c1cnc(OC2COC2)c(C(F)(F)F)c1)N1C[C@@H]2CN(C(=O)c3ccc4[nH]nnc4c3)C[C@H]2C1 [Example 2.08, ((3aS,6aS)-5-(1H-benzo[d][1,2,3]triazole-5-carbonyl)hexahydropyrrolo[3,4-c]pyrrol-2(1H)-yl)(6-(oxetan-3-yloxy)-5-(trifluoromethyl)pyridin-3-yl)methanone] | 68.5
9 | O=C(c1cnc(OC2CCOCC2)c(C2CC2)c1)N1C[C@@H]2CN(Cc3ccc4[nH]c(=O)oc4c3)C[C@H]2C1 [Example 4, 6-(((3aS,6aS)-5-(5-Cyclopropyl-6-(tetrahydro-2H-pyran-4-yloxy)nicotinoyl)hexahydropyrrolo[3,4-c]pyrrol-2(1H)-yl)methyl)benzo[d]oxazol-2(3H)-one] | 19
10 | O=C(c1cc(OCC2CCOCC2)nc(C2CC2)c1)N1C[C@@H]2CN(C(=O)c3ccc4[nH]c(=O)oc4c3)C[C@H]2C1 [Example 3.01, 6-((3aS,6aS)-5-(2-cyclopropyl-6-((tetrahydro-2H-pyran-4-yl)methoxy)isonicotinoyl)octahydropyrrolo[3,4-c]pyrrole-2-carbonyl)benzo[d]oxazol-2(3H)-one] | 12
11 | O=C(c1ccc(OC2CCOC2)c(C2CC2)c1)N1C[C@@H]2CN(C(=O)c3ccc4[nH]nnc4c3)C[C@H]2C1 (stereo partly drawn) [Example 2.03, ((3aR,6aR)-5-(1H-benzo[d][1,2,3]triazole-5-carbonyl)hexahydropyrrolo[3,4-c]pyrrol-2(1H)-yl)(3-cyclopropyl-4-(tetrahydrofuran-3-yloxy)phenyl)methanone] | 10
12 | O=C(c1cnc(OC2CCCOC2)c(C2CC2)c1)N1C[C@@H]2CN(C(=O)c3ccc4[nH]nnc4c3)C[C@H]2C1 (stereo partly drawn) [Example 2.06, ((3aS,6aS)-5-(1H-benzo[d][1,2,3]triazole-5-carbonyl)hexahydropyrrolo[3,4-c]pyrrol-2(1H)-yl)(5-cyclopropyl-6-(tetrahydro-2H-pyran-3-yloxy)pyridin-3-yl)methanone] | 4.5

More lines, now with the values ahead:

Row | IC50 [nM] | SMILES
13 | 9 | O=C(c1cnc(NC2CCOCC2)c(C2CC2)c1)N1C[C@@H]2CN(C(=O)[C@@H]3CCc4[nH]nnc4C3)C[C@H]2C1 [Example 2.11, ((3aS,6aS)-5-(5-cyclopropyl-6-(tetrahydro-2H-pyran-4-ylamino)nicotinoyl)hexahydropyrrolo[3,4-c]pyrrol-2(1H)-yl)((R)-4,5,6,7-tetrahydro-1H-benzo[d][1,2,3]triazol-5-yl)methanone]
14 | 7 | O=C(c1cc(OCC2CCOCC2)cc(C2CC2)c1)N1C[C@@H]2CN(C(=O)c3ccc4[nH]nnc4c3)C[C@H]2C1 [Example 2.29, ((3aS,6aS)-5-(1H-benzo[d][1,2,3]triazole-5-carbonyl)hexahydropyrrolo[3,4-c]pyrrol-2(1H)-yl)(3-cyclopropyl-5-((tetrahydro-2H-pyran-4-yl)methoxy)phenyl)methanone]
15 | 17 | O=C(c1cc(OCC2CCCOC2)nc(C2CC2)c1)N1C[C@@H]2CN(C(=O)[C@@H]3CCc4[nH]nnc4C3)C[C@H]2C1 (stereo partly drawn) [Example 2.16, ((3aS,6aS)-5-(2-cyclopropyl-6-((tetrahydro-2H-pyran-3-yl)methoxy)isonicotinoyl)hexahydropyrrolo[3,4-c]pyrrol-2(1H)-yl)((R)-4,5,6,7-tetrahydro-1H-benzo[d][1,2,3]triazol-5-yl)methanone]
16 | 7 | O=C(c1cc(OCC2CCOCC2)cc(C2CC2)c1)N1CC[C@@H]2CN(C(=O)[C@@H]3CCc4[nH]nnc4C3)C[C@@H]2CC1 [Example 2.28, ((3aR,8aS)-6-(3-cyclopropyl-5-((tetrahydro-2H-pyran-4-yl)methoxy)benzoyl)octahydropyrrolo[3,4-d]azepin-2(1H)-yl)((R)-4,5,6,7-tetrahydro-1H-benzo[d][1,2,3]triazol-5-yl)methanone]
17 | 10 | O=C(c1ccc2[nH]nnc2c1)N1CC[C@@H]2CN(C(=O)c3cc(OCC4CCOCC4)nc(C4CC4)c3)C[C@@H]2CC1 [Example 2.22, ((3aR,8aS)-6-(1H-benzo[d][1,2,3]triazole-5-carbonyl)octahydropyrrolo[3,4-d]azepin-2(1H)-yl)(2-cyclopropyl-6-((tetrahydro-2H-pyran-4-yl)methoxy)pyridin-4-yl)methanone]
18 | 3 | O=C(c1cc(OCC2CCOCC2)nc(C2CC2)c1)N1C[C@@H]2CN(C(=O)c3ccc4[nH]nnc4c3)C[C@H]2C1 [Example 2.01, ((3aS,6aS)-5-(1H-benzo[d][1,2,3]triazole-5-carbonyl)hexahydropyrrolo[3,4-c]pyrrol-2(1H)-yl)(2-cyclopropyl-6-((tetrahydro-2H-pyran-4-yl)methoxy)pyridin-4-yl)methanone]
19 | 14 | O=C(CCc1c[nH]c(=O)s1)N1C[C@H]2CCN(C(=O)c3cc(OCC4CCOCC4)nc(C4CC4)c3)CC[C@H]2C1 [Example 1.22, 5-(3-((3aR,8aS)-6-(2-cyclopropyl-6-((tetrahydro-2H-pyran-4-yl)methoxy)isonicotinoyl)octahydropyrrolo[3,4-d]azepin-2(1H)-yl)-3-oxopropyl)thiazol-2(3H)-one]
20 | 17 | CN(C)c1cc(C(=O)N2C[C@@H]3CN(C(=O)[C@@H]4CCc5[nH]nnc5C4)C[C@H]3C2)cc(OCC2CCOCC2)n1 [Example 2.25, ((3aS,6aS)-5-(2-(dimethylamino)-6-((tetrahydro-2H-pyran-4-yl)methoxy)isonicotinoyl)hexahydropyrrolo[3,4-c]pyrrol-2(1H)-yl)((R)-4,5,6,7-tetrahydro-1H-benzo[d][1,2,3]triazol-5-yl)methanone]
